This note sets out measurements from PubChem BioAssay (NCI).

Some test systems named below: MDA-MB-435; HOP-62 NSCLC; M14 melanoma; DU-145 prostate; SF-295 CNS; SK-OV-3 ovarian; ACHN renal; HS 578T breast; MDA-MB-231 breast; HCC-2998 colon.
Holding throughout (assay): NCI-60 cell line screen, 48 h

SMILES strings stand for the structures.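 Compound exposure: 48 hours, 5 concentrations, 96-well plates. GI50: concentration for 50% inhibition of growth. TGI: concentration producing complete growth inhibition.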 Bounds are passed on as bounds.

As to `OCCCCC#Cc1ccccc1C#Cc1ccc(C(F)(F)F)cc1`, the GI50 in the experiment on MDA-MB-435 is 16.3 µM; with HOP-62 NSCLC, 11.4 µM; in the experiment with M14 melanoma, 17.1 µM; in the experiment on DU-145 prostate, 15.8 µM; in the experiment with SF-295 CNS, 19.1 µM; with SK-OV-3 ovarian it was 18.5 µM. Besides, the GI50 in the experiment on ACHN renal was 17.5 µM; in the experiment with HS 578T breast, 26.3 µM; in the experiment on MDA-MB-231 breast it was 18.6 µM; with HCC-2998 colon, 17.1 µM. Further, the TGI was found to be 31.8 µM with MDA-MB-435; 24.3 µM in the experiment on HOP-62 NSCLC; 38.3 µM in the experiment on M14 melanoma; 31.7 µM in the experiment on DU-145 prostate; 34.5 µM with SF-295 CNS; 34 µM in the experiment with SK-OV-3 ovarian. The TGI in the experiment on ACHN renal worked out at 31.2 µM; in the experiment with HS 578T breast, 65.9 µM; with MDA-MB-231 breast it was 34 µM; in the experiment with HCC-2998 colon it was 32 µM.
Take `C[C@]12CCC3=NCCN3C1=CC[C@@H]1[C@@H]2CC[C@@]2(C)[C@H]1CC[C@]2(C)O`: the TGI with MDA-MB-435 is greater than 100 µM; in the experiment on HOP-62 NSCLC, greater than 100 µM; in the experiment on M14 melanoma it was greater than 100 µM; in the experiment with DU-145 prostate it was greater than 100 µM; in the experiment with SF-295 CNS, 42.6 µM; with SK-OV-3 ovarian it was greater than 100 µM. Further, the TGI is greater than 100 µM with ACHN renal, 74.7 µM in the experiment on HS 578T breast and greater than 100 µM in the experiment on MDA-MB-231 breast.
In the case of `COC(=O)[C@H](Cc1cn(C)cn1)NC(=O)[C@@H](NC(=O)Nc1cc(C(F)(F)F)cc(C(F)(F)F)c1)C(C)C`, the GI50 in the experiment on MDA-MB-435 was 6.11 µM; in the experiment on HOP-62 NSCLC it was 2.91 µM; in the experiment with M14 melanoma, 8.62 µM; in the experiment with DU-145 prostate it was greater than 10 µM; in the experiment on SF-295 CNS, greater than 10 µM; in the experiment on SK-OV-3 ovarian it was greater than 10 µM. For the same molecule, the GI50 with ACHN renal was greater than 10 µM; with HS 578T breast, 4.83 µM; in the experiment on MDA-MB-231 breast, 1.71 µM; with HCC-2998 colon, 1.81 µM. In addition, the TGI in the experiment on MDA-MB-435 is greater than 10 µM; in the experiment with HOP-62 NSCLC, 9.07 µM; in the experiment on M14 melanoma, greater than 10 µM; in the experiment with DU-145 prostate, greater than 10 µM; with SF-295 CNS, greater than 10 µM; in the experiment on SK-OV-3 ovarian it was greater than 10 µM. The TGI in the experiment on ACHN renal was greater than 10 µM; in the experiment with HS 578T breast, greater than 10 µM; in the experiment with MDA-MB-231 breast, 4.42 µM; in the experiment with HCC-2998 colon it was 3.46 µM.
`CCOc1ccc(Nc2nc(-c3c(C)nc4ncccn34)cs2)cc1`: the GI50 in the experiment with HOP-62 NSCLC is 0.0306 µM; with M14 melanoma it was 0.017 µM; in the experiment with DU-145 prostate it was 0.0431 µM; with SF-295 CNS, less than 0.01 µM; with SK-OV-3 ovarian it was 0.017 µM; in the experiment on ACHN renal, 0.0767 µM. The GI50 was 0.0357 µM with HS 578T breast, 0.0797 µM in the experiment on MDA-MB-231 breast and 0.0522 µM with HCC-2998 colon. The TGI with HOP-62 NSCLC stood at 18.4 µM; with M14 melanoma, 13.6 µM; with DU-145 prostate it was 19.2 µM; in the experiment with SF-295 CNS it was 15.3 µM; with SK-OV-3 ovarian, 5.48 µM; in the experiment with ACHN renal it was 19.5 µM. For the same molecule, the TGI in the experiment with HS 578T breast is 23.3 µM; in the experiment with MDA-MB-231 breast, 22.6 µM; in the experiment with HCC-2998 colon, 15.7 µM.
Turning to `O=C1CCS/C(=N/S(=O)(=O)c2ccc(N3N=C4c5ccccc5CC4C3c3cccs3)cc2)N1Cc1ccccc1` (configuration not stated), the GI50 in the experiment with MDA-MB-435 was 21.1 µM; in the experiment with HOP-62 NSCLC, 18.6 µM; in the experiment on M14 melanoma, 15.3 µM; in the experiment with DU-145 prostate, 21 µM; with SF-295 CNS it was 15.8 µM; in the experiment on SK-OV-3 ovarian, 32.9 µM. Further, the GI50 was 14.9 µM in the experiment with ACHN renal, 23.5 µM in the experiment with HS 578T breast, 21.5 µM in the experiment with MDA-MB-231 breast and 17.9 µM with HCC-2998 colon. Further, the TGI turned out to be 44.6 µM in the experiment on MDA-MB-435; 34 µM with HOP-62 NSCLC; 30.1 µM in the experiment on M14 melanoma; 52.6 µM with DU-145 prostate; 37.5 µM in the experiment on SF-295 CNS; 79.6 µM in the experiment on SK-OV-3 ovarian. Also, the TGI with ACHN renal came out at 32.9 µM; in the experiment with HS 578T breast it was 67.2 µM; in the experiment with MDA-MB-231 breast it was 53.7 µM; in the experiment on HCC-2998 colon, 33.2 µM.
Take `Nc1ncnc2c1nc(Cl)n2C1OC(CO)C(O)C1O` (configuration not stated): the TGI in the experiment on MDA-MB-435 is greater than 100 µM; with HOP-62 NSCLC, greater than 100 µM; in the experiment with M14 melanoma, greater than 100 µM; with DU-145 prostate, greater than 93.3 µM; in the experiment with SF-295 CNS, greater than 100 µM; in the experiment with SK-OV-3 ovarian, greater than 100 µM. Also, the TGI with ACHN renal, in the experiment on HS 578T breast and in the experiment on MDA-MB-231 breast was greater than 100 µM throughout.
Regarding `O=C(Oc1ccc2c(c1)CN(Cc1ccccc1)CO2)c1ccccc1`, the TGI in the experiment on MDA-MB-435 amounted to 54.2 µM; in the experiment with HOP-62 NSCLC, 38.6 µM; in the experiment on M14 melanoma, 32 µM; in the experiment on DU-145 prostate, 36.7 µM; with SF-295 CNS, 38.4 µM; in the experiment on SK-OV-3 ovarian, 34 µM. In addition, the TGI in the experiment with ACHN renal was determined as 32.9 µM; in the experiment on HS 578T breast, 61.5 µM; in the experiment on MDA-MB-231 breast, 36 µM; with HCC-2998 colon it was 28.2 µM.
In the case of `Fc1ccc(-c2nn3c(COc4ccc(Cl)cc4)nnc3s2)cc1Oc1ccccc1`, the GI50 in the experiment with MDA-MB-435 is 30.8 µM; with HOP-62 NSCLC it was 16.6 µM; with M14 melanoma, greater than 49.5 µM; in the experiment with DU-145 prostate it was 48.5 µM; in the experiment with SF-295 CNS, 15.2 µM; in the experiment with SK-OV-3 ovarian it was 78.9 µM. The GI50 was 31.4 µM in the experiment on ACHN renal, 22.4 µM in the experiment on HS 578T breast, 16.4 µM in the experiment with MDA-MB-231 breast and 30.6 µM in the experiment on HCC-2998 colon. The TGI was greater than 71.1 µM with MDA-MB-435; 35.6 µM with HOP-62 NSCLC; greater than 79.3 µM in the experiment on M14 melanoma; greater than 100 µM in the experiment with DU-145 prostate; 33.5 µM in the experiment with SF-295 CNS; greater than 100 µM with SK-OV-3 ovarian. Further, the TGI is greater than 53.1 µM in the experiment on ACHN renal, 61.4 µM with HS 578T breast, 35.8 µM in the experiment with MDA-MB-231 breast and 92.8 µM in the experiment with HCC-2998 colon.
As to `NC(N)=N/N=C/c1c(-c2ccc(Cl)c([N+](=O)[O-])c2)nc2sc3ccccc3n12`, the GI50 in the experiment with MDA-MB-435 was 1.1 µM; in the experiment on HOP-62 NSCLC, 11.6 µM; in the experiment on M14 melanoma, 0.136 µM; in the experiment on DU-145 prostate it was 2.29 µM; with ACHN renal, 0.862 µM; in the experiment on HS 578T breast, 1.38 µM. The values for the GI50 in the experiment on MDA-MB-231 breast and with HCC-2998 colon were 0.697 µM and 0.296 µM, respectively. Besides, the TGI with MDA-MB-435 was determined as 2.4 µM; with HOP-62 NSCLC it was 28.1 µM; in the experiment with M14 melanoma it was 12 µM; in the experiment with DU-145 prostate, 14.8 µM; in the experiment with ACHN renal, 1.56 µM; in the experiment with HS 578T breast, 2.91 µM. The TGI stood at 1.47 µM in the experiment on MDA-MB-231 breast and 0.95 µM with HCC-2998 colon.
